Measured values: patent US20080287478A1 (priority 2003, published 2008)
Structures can show the parent of a compound that is named as a salt. Where two headings read alike, the source gives them in different places.

Experiments:
Male SD/TAC rats = experiment: animal or person; format: in vivo, rat; conditions: for response vs control in vivo at 3 µmol/kg / minimal effective dose / ED (max): Rattus norvegicus; for minimal effective dose: read-out: Lovest Dose at which increased diuresis is achieved nMol/kg. I.e. >1.5 SC; for ED (max): read-out: SC Dose at which max diuresis is achieved nMol/kg
mice = conditions: mouse, in vivo, iv
male NMRI mice = conditions: mouse, in vivo, iv; for dose at which the mice died after injection / time to death after injection: male, NMRI
in vivo = conditions: male, Sprague-Dawley, rat
[1] = rat, in vivo

| Compound | response vs control in vivo at 3 µmol/kg (Male SD/TAC rats; po, read-out: PO max effect.) [%] | minimal effective dose (Male SD/TAC rats; sc) [µmol/kg] | ED (max) (Male SD/TAC rats; sc) [nmol/kg] | response vs control in vivo at 3 µmol/kg (Male SD/TAC rats; sc, read-out: SC max effect.) [%] | Lovest Dose at which increased diuresis is achieved nMol/kg. I.e. >1.5 IV (Male SD/TAC rats; rat, in vivo) | Lovest Dose at which increased diuresis is achieved nMol/kg. I.e. >1.5 PO (Male SD/TAC rats; rat, in vivo, po) [nmol/kg] | PO Dose at which max diuresis is achieved (Male SD/TAC rats; rat, in vivo, po) [nmol/kg] | PO Dose at which max diuresis is achieved nMol/kg (Male SD/TAC rats; rat, in vivo, po) | CNS motility* (Minimal effective dose nmol/kg) (mice) [nmol/kg] | dose with statistical significant decrease in locomotor activity during the first 15 minutes (mice) [nmol/kg] | locomotor activity / activity count during the first 30 minutes versus vehicle (mice) | dose at which the mice died after injection (male NMRI mice) [nmol/kg] | time to death after injection (male NMRI mice) | CNS grid shock* (Minimal effective dose nmol/kg) (male NMRI mice) [nmol/kg] | gridshock response versus vehicle (male NMRI mice) | half-life (in vivo) [h] | Lovest Dose at which increased diuresis is achieved nMol/kg. I.e. >1.5 SC (Male SD/TAC rats; rat, in vivo, sc) [nmol/kg] | SC Dose at which max diuresis is achieved (Male SD/TAC rats; rat, in vivo, sc) [nmol/kg] | SC max effect. (Male SD/TAC rats; rat, in vivo, sc) | oral availability (in words) [1] |
| --- | --- | --- | --- | --- | --- | --- | --- | --- | --- | --- | --- | --- | --- | --- | --- | --- | --- | --- | --- | --- |
| CC(C)[C@H]1CC[C@@H](N2CCC3(CC2)C(=O)N(CCCCCCCCCN2CN(c4ccccc4)C4(CCN([C@H]5CC[C@@H](C(C)C)CC5)CC4)C2=O)CN3c2ccccc2)CC1 [Compound 25, 1,9-bis-(cis-8-(4-isopropyl-cyclohexyl)-1-phenyl-1,3,8-triaza-spiro[4.5]decan-4-one-3-yl)-nonane] | 250 | 0.01 | 1000 | 250 | 10^−5 nMol/kg | 10 | 1000 |  |  |  |  |  |  |  |  |  |  |  |  |  |
| CC(C)[C@H]1CC[C@@H](N2CCC3(CC2)C(=O)N(CCCNCCNCCNCCCNCCN)CN3c2ccccc2)CC1 [Compound 33, cis-8-(4-Isopropyl-cyclohexyl)-3-(4,7,10,14,17-pentaazaheptadecyl)-1-phenyl-1,3,8-triaza-spiro[4.5]decan-4-one] | 160 | 0.0001 | 1000 | 330 |  | 1000 | 1000 |  |  |  |  |  |  |  |  |  |  |  |  |  |
| CC(C)[C@H]1CC[C@@H](N2CCC3(CC2)C(=O)N(CCCCCCNCCNCCCNCCNCCN)CN3c2ccccc2)CC1 [Compound 34, cis-8-(4-Isopropyl-cyclohexyl)-3-(7,10,14,17,20-pentaazaeicosanyl)-1-phenyl-1,3,8-triaza-spiro[4.5]decan-4-one] | 200 | 0.01 | 100 | 490 | 0.0001 nmol/kg | 0.1 |  | 0.1; 10 nMol/kg | 100 | 1000 | No statistical significant difference | 2000 | approximately 2 minutes | 300 | No statistical significant difference |  |  |  |  |  |
| CC(C)[C@H]1CC[C@@H](N2CCC3(CC2)C(=O)N(CCCN2CCCNCCNCCCNCC2)CN3c2ccccc2)CC1 [Compound 36, cis-8-(4-Isopropyl-cyclohexyl)-1-phenyl-3-[3-(1,4,8,11-tetraaza-cyclotetradec-1-yl)-propyl]-1,3,8-triaza-spiro[4.5]decan-4-one] | 240 |  |  |  | 10 nmol/kg | 1000 | 1000 |  | 100 |  |  | 2000 | approximately 1 | 1000 |  | 2 |  |  |  |  |
| O=C(O)C(F)(F)F [TFA, Trifluoroacetic acid] |  |  |  |  |  |  |  |  |  |  | No statistical significant difference |  |  |  | No statistical significant difference |  |  |  |  |  |
| cis and trans-3-(Methoxycarbonylmethyl-)-8-(4-isopropyl-cyclohexyl)-1-phenyl-1,3,8-triaza-spiro[4.5]decan-4-one [Compound 10] |  |  |  |  |  |  |  |  |  |  |  |  |  |  |  |  | 1000 | 1000 | 1.9 |  |
| cis-(8-(4-Isopropyl-cyclohexyl)-1-phenyl-1,3,8-triaza-spiro[4.5]decan-4-one)-acetic acid [Compound 11] |  |  |  |  | 10 nmol/kg |  |  |  | >10000 |  | No statistical significant difference |  |  |  | No statistical significant difference |  | 1000 | 1000 | 2.0 | orally available |
